Tests used:
Details in all cases: 1 µM; inhibitor
p38d = p38d (Homo sapiens, UniProt O15264)
CDK20/CycT1 = CDK20/CycT1 (Homo sapiens, UniProt Q8IZL9)
ABL2 = ABL2 (Homo sapiens, UniProt P42684)
MET = MET (Homo sapiens, UniProt P08581)
PLK1 = PLK1 (Homo sapiens, UniProt P53350)
MEK2 = MEK2 (Homo sapiens, UniProt P36507)
p38g = p38g (Homo sapiens, UniProt P53778)
MKK4 = MKK4 (Homo sapiens, UniProt P45985)
GRK7 = GRK7 (Homo sapiens, UniProt Q8WTQ7)
BRAF = BRAF (Homo sapiens, UniProt P15056)
ROCK1 = ROCK1 (Homo sapiens, UniProt Q13464)
CLK1 = CLK1 (Homo sapiens, UniProt P49759)
CDK2/CycA2 = CDK2/CycA2 (Homo sapiens, UniProt P24941)
PRKG2 = PRKG2 (Homo sapiens, UniProt Q13237)
PIM2 = PIM2 (Homo sapiens, UniProt Q9P1W9)
ERK5 = ERK5 (Homo sapiens, UniProt Q13164)
RPS6KA4 = RPS6KA4 (Homo sapiens, UniProt O75676)
TSK2 = TSK2 (Homo sapiens, UniProt Q96PF2)
TIE2 = TIE2 (Homo sapiens, UniProt Q02763)
WNK2 = WNK2 (Homo sapiens, UniProt Q9Y3S1)
PKCe = PKCe (Homo sapiens, UniProt Q02156)
CLK2 = CLK2 (Homo sapiens, UniProt P49760)
JNK2 = JNK2 (Homo sapiens, UniProt P45984)
COT = COT (Homo sapiens, UniProt P41279)
SGK2 = SGK2 (Homo sapiens, UniProt Q9HBY8)
SRPK2 = SRPK2 (Homo sapiens, UniProt P78362)
PIM1 = PIM1 (Homo sapiens, UniProt P11309)
LYN = LYN (Homo sapiens, UniProt P07948)
RIPK2 = RIPK2 (Homo sapiens, UniProt O43353)
CAMK1D = CAMK1D (Homo sapiens, UniProt Q8IU85)
PYK2 = PYK2 (Homo sapiens, UniProt Q14289)

CLK2, sequence (P49760 whole entry): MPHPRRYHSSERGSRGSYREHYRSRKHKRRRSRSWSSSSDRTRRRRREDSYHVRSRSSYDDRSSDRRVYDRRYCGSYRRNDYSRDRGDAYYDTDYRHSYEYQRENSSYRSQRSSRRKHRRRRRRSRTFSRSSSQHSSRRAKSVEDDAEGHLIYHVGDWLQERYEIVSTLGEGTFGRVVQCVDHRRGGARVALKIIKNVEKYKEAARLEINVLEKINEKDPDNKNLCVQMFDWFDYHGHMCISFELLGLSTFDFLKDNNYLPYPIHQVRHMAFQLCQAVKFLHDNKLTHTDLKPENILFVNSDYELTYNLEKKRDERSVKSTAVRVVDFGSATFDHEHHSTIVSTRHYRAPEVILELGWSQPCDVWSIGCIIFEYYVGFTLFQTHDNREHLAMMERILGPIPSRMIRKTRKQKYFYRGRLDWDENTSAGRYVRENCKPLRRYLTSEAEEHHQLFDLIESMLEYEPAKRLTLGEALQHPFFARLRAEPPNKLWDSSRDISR
SRPK2, sequence (P78362 whole entry): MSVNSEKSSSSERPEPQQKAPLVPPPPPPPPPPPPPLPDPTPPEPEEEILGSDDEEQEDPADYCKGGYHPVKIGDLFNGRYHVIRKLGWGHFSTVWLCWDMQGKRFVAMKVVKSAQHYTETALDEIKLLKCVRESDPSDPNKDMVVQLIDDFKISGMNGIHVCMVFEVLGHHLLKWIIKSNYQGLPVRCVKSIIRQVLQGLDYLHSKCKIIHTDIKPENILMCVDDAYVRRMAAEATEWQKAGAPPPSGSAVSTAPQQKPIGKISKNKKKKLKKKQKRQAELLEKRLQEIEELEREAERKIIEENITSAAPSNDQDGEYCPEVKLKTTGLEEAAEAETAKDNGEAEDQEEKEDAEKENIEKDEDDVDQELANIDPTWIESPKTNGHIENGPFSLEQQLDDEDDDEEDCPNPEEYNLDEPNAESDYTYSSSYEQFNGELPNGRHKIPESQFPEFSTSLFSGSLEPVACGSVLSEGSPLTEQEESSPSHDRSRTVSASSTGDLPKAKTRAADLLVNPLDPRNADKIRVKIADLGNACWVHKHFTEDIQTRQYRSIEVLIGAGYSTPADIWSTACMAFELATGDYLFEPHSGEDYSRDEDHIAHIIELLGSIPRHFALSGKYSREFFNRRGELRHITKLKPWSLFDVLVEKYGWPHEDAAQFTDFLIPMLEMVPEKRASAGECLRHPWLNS
RPS6KA4, sequence (O75676 whole entry): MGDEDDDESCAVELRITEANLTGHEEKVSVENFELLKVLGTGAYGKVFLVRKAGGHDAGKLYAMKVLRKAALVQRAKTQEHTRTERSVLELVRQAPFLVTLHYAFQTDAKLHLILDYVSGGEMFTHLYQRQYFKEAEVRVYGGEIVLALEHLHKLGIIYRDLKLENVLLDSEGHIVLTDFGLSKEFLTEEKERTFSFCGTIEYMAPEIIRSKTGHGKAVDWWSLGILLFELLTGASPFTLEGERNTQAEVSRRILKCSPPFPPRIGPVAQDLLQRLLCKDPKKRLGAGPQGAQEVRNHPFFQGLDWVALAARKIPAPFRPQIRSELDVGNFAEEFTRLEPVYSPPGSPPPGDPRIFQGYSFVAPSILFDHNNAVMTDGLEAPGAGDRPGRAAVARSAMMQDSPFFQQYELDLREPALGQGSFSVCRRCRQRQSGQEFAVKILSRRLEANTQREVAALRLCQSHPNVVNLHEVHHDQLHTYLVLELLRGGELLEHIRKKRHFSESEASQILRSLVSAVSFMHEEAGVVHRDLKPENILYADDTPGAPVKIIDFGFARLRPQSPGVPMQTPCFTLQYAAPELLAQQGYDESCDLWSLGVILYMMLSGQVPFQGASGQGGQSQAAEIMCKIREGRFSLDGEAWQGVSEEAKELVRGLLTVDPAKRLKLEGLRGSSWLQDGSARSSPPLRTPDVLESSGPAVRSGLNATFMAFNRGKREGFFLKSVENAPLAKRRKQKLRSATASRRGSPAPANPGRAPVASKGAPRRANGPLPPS
WNK2, sequence (Q9Y3S1 whole entry): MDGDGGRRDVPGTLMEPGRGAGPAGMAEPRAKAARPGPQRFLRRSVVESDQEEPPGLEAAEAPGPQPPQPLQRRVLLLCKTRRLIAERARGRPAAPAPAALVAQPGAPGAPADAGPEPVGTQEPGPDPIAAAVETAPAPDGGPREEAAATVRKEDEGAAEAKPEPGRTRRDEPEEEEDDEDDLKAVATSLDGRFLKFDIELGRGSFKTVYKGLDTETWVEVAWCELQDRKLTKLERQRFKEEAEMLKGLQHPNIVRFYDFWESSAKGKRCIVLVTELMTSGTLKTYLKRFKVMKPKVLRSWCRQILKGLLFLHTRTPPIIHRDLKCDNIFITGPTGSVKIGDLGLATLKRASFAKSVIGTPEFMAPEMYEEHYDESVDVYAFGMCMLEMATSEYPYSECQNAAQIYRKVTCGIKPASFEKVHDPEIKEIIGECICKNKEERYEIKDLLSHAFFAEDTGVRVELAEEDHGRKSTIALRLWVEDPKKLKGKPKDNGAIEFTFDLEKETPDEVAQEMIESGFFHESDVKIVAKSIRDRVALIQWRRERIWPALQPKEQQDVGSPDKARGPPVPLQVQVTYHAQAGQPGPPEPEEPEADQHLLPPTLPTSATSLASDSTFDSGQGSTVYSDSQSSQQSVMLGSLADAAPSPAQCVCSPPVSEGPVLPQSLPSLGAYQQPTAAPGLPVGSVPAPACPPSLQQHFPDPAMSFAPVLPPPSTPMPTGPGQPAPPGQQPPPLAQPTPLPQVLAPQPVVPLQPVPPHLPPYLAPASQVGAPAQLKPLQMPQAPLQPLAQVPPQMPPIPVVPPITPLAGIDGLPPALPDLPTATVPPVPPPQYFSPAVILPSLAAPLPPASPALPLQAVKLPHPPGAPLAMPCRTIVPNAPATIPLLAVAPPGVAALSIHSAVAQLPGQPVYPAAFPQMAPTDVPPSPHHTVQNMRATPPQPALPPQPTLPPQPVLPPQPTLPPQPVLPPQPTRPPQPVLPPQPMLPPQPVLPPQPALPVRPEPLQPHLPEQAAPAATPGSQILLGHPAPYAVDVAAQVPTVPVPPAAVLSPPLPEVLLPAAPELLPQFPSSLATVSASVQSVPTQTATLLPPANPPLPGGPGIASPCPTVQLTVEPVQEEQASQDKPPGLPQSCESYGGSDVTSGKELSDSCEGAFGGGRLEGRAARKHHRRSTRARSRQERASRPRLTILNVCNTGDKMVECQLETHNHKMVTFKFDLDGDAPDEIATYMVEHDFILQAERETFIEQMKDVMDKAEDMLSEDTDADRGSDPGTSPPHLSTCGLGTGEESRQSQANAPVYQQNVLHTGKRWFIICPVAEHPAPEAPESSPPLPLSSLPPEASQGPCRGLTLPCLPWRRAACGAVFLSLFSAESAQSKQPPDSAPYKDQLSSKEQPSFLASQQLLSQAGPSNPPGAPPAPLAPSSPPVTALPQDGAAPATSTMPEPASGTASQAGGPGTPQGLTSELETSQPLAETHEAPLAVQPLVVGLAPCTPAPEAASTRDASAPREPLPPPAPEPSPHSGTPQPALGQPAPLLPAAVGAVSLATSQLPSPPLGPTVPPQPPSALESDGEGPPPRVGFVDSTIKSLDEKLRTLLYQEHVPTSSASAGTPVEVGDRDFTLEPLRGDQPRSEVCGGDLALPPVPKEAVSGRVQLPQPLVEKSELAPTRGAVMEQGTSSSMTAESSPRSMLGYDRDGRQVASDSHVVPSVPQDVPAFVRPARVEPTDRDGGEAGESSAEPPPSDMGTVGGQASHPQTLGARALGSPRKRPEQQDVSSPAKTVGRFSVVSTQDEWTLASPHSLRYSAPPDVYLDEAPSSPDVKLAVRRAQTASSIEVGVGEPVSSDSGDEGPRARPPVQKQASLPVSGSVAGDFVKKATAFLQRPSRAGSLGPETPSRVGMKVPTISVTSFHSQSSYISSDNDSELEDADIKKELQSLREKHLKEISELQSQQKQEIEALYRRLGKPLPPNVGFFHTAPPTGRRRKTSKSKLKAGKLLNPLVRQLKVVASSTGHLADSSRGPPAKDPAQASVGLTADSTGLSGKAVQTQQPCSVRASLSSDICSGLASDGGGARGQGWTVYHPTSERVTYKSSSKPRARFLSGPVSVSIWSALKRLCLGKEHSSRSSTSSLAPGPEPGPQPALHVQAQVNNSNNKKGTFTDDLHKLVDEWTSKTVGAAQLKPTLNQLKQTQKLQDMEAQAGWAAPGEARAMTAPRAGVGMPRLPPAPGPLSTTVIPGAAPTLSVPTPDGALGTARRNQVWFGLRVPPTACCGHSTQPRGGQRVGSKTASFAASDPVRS
SGK2, sequence (Q9HBY8 whole entry): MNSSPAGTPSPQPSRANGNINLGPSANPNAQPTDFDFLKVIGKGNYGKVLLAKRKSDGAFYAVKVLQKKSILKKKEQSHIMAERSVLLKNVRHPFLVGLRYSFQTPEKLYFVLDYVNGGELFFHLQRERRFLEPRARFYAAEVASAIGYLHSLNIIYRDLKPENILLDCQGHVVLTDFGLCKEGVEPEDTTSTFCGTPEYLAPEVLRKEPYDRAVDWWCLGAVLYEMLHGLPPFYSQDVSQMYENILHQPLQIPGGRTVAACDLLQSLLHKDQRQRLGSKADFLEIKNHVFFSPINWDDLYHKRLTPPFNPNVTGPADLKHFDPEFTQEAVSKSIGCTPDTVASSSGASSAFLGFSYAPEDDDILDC
MEK2, sequence (P36507 whole entry): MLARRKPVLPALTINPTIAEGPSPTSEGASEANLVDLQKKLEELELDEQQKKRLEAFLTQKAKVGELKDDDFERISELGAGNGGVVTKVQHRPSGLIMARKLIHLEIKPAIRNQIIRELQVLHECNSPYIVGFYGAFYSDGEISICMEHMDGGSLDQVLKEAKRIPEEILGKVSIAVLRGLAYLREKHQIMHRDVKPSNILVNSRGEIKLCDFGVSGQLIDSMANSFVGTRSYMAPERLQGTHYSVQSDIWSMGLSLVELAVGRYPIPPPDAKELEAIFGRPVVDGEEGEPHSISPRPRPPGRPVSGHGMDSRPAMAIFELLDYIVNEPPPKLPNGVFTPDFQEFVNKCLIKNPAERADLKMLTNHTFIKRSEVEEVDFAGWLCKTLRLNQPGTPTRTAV

21c Remaining activity, percent of control [%] (p38d): 94.8% | 21c Remaining activity, percent of control [%] (CDK20/CycT1): 89.1% | 21c Remaining activity, percent of control [%] (ABL2): 84.2% | 21c Remaining activity, percent of control [%] (MET): 107.2% | 21c Remaining activity, percent of control [%] (PLK1): 89.3% | 21c Remaining activity, percent of control [%] (MEK2): 90.2% | 21c Remaining activity, percent of control [%] (p38g): 88.6% | 21c Remaining activity, percent of control [%] (MKK4): 127.3% | 21c Remaining activity, percent of control [%] (GRK7): 89.2% | 21c Remaining activity, percent of control [%] (BRAF): 89.7% | 21c Remaining activity, percent of control [%] (ROCK1): 98.4% | 21c Remaining activity, percent of control [%] (CLK1): 79.0% | 21c Remaining activity, percent of control [%] (CDK2/CycA2): 106.1% | 21c Remaining activity, percent of control [%] (PRKG2): 93.5% | 21c Remaining activity, percent of control [%] (PIM2): 103.1% | 21c Remaining activity, percent of control [%] (ERK5): 93.4% | 21c Remaining activity, percent of control [%] (RPS6KA4): 92.5% | 21c Remaining activity, percent of control [%] (TSK2): 93.8% | 21c Remaining activity, percent of control [%] (TIE2): 116.9% | 21c Remaining activity, percent of control [%] (WNK2): 94.8% | 21c Remaining activity, percent of control [%] (PKCe): 86.5% | 21c Remaining activity, percent of control [%] (CLK2): 64.6% | 21c Remaining activity, percent of control [%] (JNK2): 84.0% | 21c Remaining activity, percent of control [%] (COT): 115.1% | 21c Remaining activity, percent of control [%] (SGK2): 105.5% | 21c Remaining activity, percent of control [%] (SRPK2): 97.0% | 21c Remaining activity, percent of control [%] (PIM1): 101.3% | 21c Remaining activity, percent of control [%] (LYN): 139.3% | 21c Remaining activity, percent of control [%] (RIPK2): 105.0% | 21c Remaining activity, percent of control [%] (CAMK1D): 103.0% | 21c Remaining activity, percent of control [%] (PYK2): 80.8%
Compound: O=C1NCCCCCNc2nc(c3ccccc3n2)Nc2cc1[nH]n2 [21c, (Z)-3^1H-2,5,11-triaza-1(4,2)-quinazolina-3(3,5)-pyrazolacycloundecaphan-4-one]
